Counter-ions that a name gives are not always drawn. Like-named read-outs stand apart in the source and are kept apart here.
Columns and labels:
α1 adrenalin receptor = experiment: Binding test on [3H] prazosin (α1 adrenalin receptor); set-up: species or system rat; conditions: [3H] prazosin about 0.2 nM, receptor fraction of rat cerebral cortex
Description: Methysergide maleate was dissolved in distilled water before using.
(§1) Use was made of SD rats aged 6 to 8 weeks.
(§2) The rats were sacrificed by dcapitation to extirpate the cerebra.
(§3) The hippocampus was mixed with 50 times (on the wet weight basis) as much a 0.32 M sucrose solution while the cortex was mixed with 10 times as much the same solution. Each mixture was homogenized by using a Teflon glass homogenizer and centrifuged at 1,000×g for 10 min. The supernatant thus obtained was further centrifuged at 20,000×g for 20 min. The obtained precipitate was re-suspended in 50 times (based on the intial wet weight; in the case of the hippocampus) or 10 times (in the case of the cortex) as much a 50 mM Tris hydrochloride (pH 7.4) and incubated at room temperature for 30 min. After centrifuging at 20,000×g for 20 min, the obtained precipitate was further suspended and centrifuged twice each in the same manner. The precipitate thus obtained was suspended in 100 times (based on the initial wet weight; in the case of the hippocampus) or 20 times (in the case of the cortex) as much a 50 mM Tris hydrochloride solution (pH 7.4) to thereby give a receptor fraction. This receptor fraction was stored at −80° C. until using.
(Binding Test on [^3H] Prazosin)
Next, it was filtered through a glass filter with the use of a cell harvester. After washing the glass filter with 50 mM Tris hydrochloride (pH 7.4), the radioactivity of the receptor was measured with a liquid scintillation counter. The binding detected in the presence of 10 μM of phentolamine was referred to as the nonspecific binding.
Subsequently, the abilities of typical examples of the compounds of the present invention to bind to the α1 adrenalin receptor were evaluated by the test method described above.

serotonin 1A receptor = target: T1, serotonin 1A receptor (Rattus norvegicus, UniProt P19327); experiment: Binding test on [3H] 8-hydroxy-dipropylaminotetralin (serotonin 1A receptor); conditions: [3H] 8-OH-DPAT 0.5 nM, receptor fraction of rat hippocampus; read-out: 5HT1a
T1 construct: To the receptor fraction of the hippocampus were added a test compound and 0.5 nM of [^3H]; 8-hydroxy-dipropylaminotetralin; from tissue; host or cells: SD rat hippocampus, membrane (receptor) fraction
T1 sequence (P19327 1-422): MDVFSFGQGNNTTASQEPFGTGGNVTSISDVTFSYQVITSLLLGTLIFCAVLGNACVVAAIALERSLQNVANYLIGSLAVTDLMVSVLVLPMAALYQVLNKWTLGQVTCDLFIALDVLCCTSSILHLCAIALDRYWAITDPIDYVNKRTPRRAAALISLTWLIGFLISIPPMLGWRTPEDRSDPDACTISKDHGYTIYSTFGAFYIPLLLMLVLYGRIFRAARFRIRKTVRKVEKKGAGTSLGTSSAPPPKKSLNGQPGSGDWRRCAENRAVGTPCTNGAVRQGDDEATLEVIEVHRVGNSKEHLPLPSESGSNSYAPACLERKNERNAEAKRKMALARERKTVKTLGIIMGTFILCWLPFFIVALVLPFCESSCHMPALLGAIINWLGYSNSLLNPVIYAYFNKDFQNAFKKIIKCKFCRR

serotonin 2 receptor = serotonin 2 receptor (Rattus norvegicus, UniProt P14842); experiment: Binding test on [3H] ketanserin (serotonin 2 receptor)
Chain of serotonin 2 receptor (P14842 whole entry): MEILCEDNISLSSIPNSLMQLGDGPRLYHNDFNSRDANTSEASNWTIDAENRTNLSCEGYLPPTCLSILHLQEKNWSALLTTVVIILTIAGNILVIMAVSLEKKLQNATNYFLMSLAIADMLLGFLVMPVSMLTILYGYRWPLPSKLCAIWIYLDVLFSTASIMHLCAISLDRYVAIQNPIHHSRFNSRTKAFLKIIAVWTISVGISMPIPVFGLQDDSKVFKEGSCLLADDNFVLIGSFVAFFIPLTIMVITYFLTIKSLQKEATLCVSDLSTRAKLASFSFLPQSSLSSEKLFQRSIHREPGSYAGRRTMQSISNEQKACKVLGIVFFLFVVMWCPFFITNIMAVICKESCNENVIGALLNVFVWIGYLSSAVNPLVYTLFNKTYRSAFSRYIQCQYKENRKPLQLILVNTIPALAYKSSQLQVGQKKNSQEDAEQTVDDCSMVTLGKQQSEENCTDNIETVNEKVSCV
Description: as §1, §2, §3
(Binding Test on [^3H] Ketanserin)
Next, it was filtered through a glass filter with the use of a cell harvester. After washing the glass filter with 50 mM Tris hydrochloride (pH 7.4), the radioactivity of the receptor was measured with a liquid scintillation counter. The binding detected in the presence of 1 μM of methysergide was referred to as the nonspecific binding.
IC50 was calculated by the probit method, while Ki was determined in accordance with the following formula:
wherein c represents the concentration of the radioisotope-labeled compound, and Kd represents the dissociation constant of the radioisotope-labeled compound with respect to the receptor determined by Scatchard's analysis.

[1] = [3H] ketanserin 0.3 nM, receptor fraction of rat cerebral cortex, read-out: 5HT2

Work on `COc1ccc(C(O)c2ccc3ccn(C4CCN(CCc5ccc(F)cc5)CC4)c3c2)cn1` (stereo not drawn) [Example 318, 1-[1-(4-fluorophenethyl)piperidin-4-yl]-6-[(2-methoxypyridin-5-yl)hydroxymethyl]indole Oxalate] yielded a Ki (α1 adrenalin receptor) of 46.6 nM, a Ki (serotonin 1A receptor) of 1.49 nM and a Ki (serotonin 2 receptor; [1]) of 8.3 nM.

`CNCc1ccc2ccn(C3CCN(CCc4ccc(F)cc4)CC3)c2c1` [Example 361, 1-[1-(4-fluorophenethyl)piperidin-4-yl]-6-N-methylaminomethylindole] was tested, and the Ki (α1 adrenalin receptor) was 77.4 nM, the Ki (serotonin 1A receptor) was 0.27 nM and the Ki (serotonin 2 receptor; [1]) was > 20 nM.

In the case of `CN(c1ccc2ccn(C3CCN(CCc4ccc(F)cc4)CC3)c2c1)S(C)(=O)=O` [Example 335], the Ki (α1 adrenalin receptor) is reported as 28.4 nM, the Ki (serotonin 1A receptor) is reported as 0.22 nM and the Ki (serotonin 2 receptor) is reported as > 20 nM.

`Nc1nc2cc3c(cc2s1)CCN3C1CCN(CCc2ccc(F)cc2)CC1` [Example 235] gave a Ki (α1 adrenalin receptor) of 77.8 nM, a Ki (serotonin 1A receptor) of 0.2 nM and a Ki (serotonin 2 receptor; [1]) of 14.6 nM.

`COc1ccc2c(c1)N(C1CCN(CCc3ccc(F)cc3)C1)CC2` (stereo not drawn) [Example 292, 1-[1-(4-fluorophenethyl)pyrrolidin-3-yl]-6-methoxyindoline] gave a Ki (α1 adrenalin receptor) of 178 nM, a Ki (serotonin 1A receptor) of 92 nM and a Ki (serotonin 2 receptor; [1]) of 58.8 nM.

For `Fc1ccc(CCCN2CCC(N3CCc4ccccc43)CC2)cc1` [Example 13, 1-[1-(4-fluorophenylpropyl)piperidin-4-yl]indoline], the Ki (α1 adrenalin receptor) was 188 nM, the Ki (serotonin 1A receptor) was 24.2 nM and the Ki (serotonin 2 receptor; [1]) was > 200 nM.

`CCCC(=O)NCc1ccc2ccn(C3CCN(CCc4ccc(F)cc4)CC3)c2c1` [Example 362, 1-[1-(4-fluorophenethyl)piperidin-4-yl]-6-(n-butyryl)aminomethylindole] was tested, and the Ki (α1 adrenalin receptor) was 144 nM, the Ki (serotonin 1A receptor) was 0.46 nM and the Ki (serotonin 2 receptor; [1]) was 3.54 nM.

`O=C1CCCN1Cc1ccc2ccn(C3CCN(CCc4ccc(F)cc4)CC3)c2c1` [Example 358, 1-[1-(4-fluorophenethyl)piperidin-4-yl]-6-(2-pyrrolidon-1-yl)methylindole] was tested, and the Ki (α1 adrenalin receptor) was 41.8 nM, the Ki (serotonin 1A receptor) was 0.73 nM and the Ki (serotonin 2 receptor; [1]) was 14 nM.

For `CN(C)CCC(=O)NCc1ccc2ccn(C3CCN(CCc4ccc(F)cc4)CC3)c2c1` [Example 378, 1-[1-(4-fluorophenethyl)piperidin-4-yl]-6-(3-N,N-dimethylaminopropionyl)aminomethylindole], the Ki (α1 adrenalin receptor) was 43.7 nM, the Ki (serotonin 1A receptor) was 14.2 nM and the Ki (serotonin 2 receptor; [1]) was 1.54 nM.

`O=C1NCCN1Cc1ccc2ccn(C3CCN(CCc4ccc(F)cc4)CC3)c2c1` [Example 355, 1-[1-(4-fluorophenethyl)piperidin-4-yl]-6-(2-imidazolidonyl)methylindole] gave a Ki (α1 adrenalin receptor) of 39.5 nM, a Ki (serotonin 1A receptor) of 0.35 nM and a Ki (serotonin 2 receptor; [1]) of 6.87 nM.

In the case of `O=S1(=O)CCCN1Cc1ccc2ccn(C3CCN(CCc4ccc(F)cc4)CC3)c2c1` [Example 326, 1-[1-(4-fluorophenethyl)piperidin-4-yl]-6-(1,3-propanesultam-2-yl)methylindole], the Ki (α1 adrenalin receptor) is reported as 167 nM, the Ki (serotonin 1A receptor) is reported as 0.4 nM and the Ki (serotonin 2 receptor; [1]) is reported as > 20 nM.

Compound `O=C(NCc1ccc2ccn(C3CCN(CCc4ccc(F)cc4)CC3)c2c1)n1ccnc1` [Example 368, 1-[1-(4-fluorophenethyl)piperidin-4-yl]-6-imidazocarbonylaminomethylindole] has a Ki (α1 adrenalin receptor) of 37.6 nM, a Ki (serotonin 1A receptor) of 1.63 nM and a Ki (serotonin 2 receptor; [1]) of 0.56 nM.

`CCC(O)c1ccc2ccn(C3CCN(CCc4ccc(F)cc4)CC3)c2c1` (stereo not drawn) [Example 319, 1-[1-(4-fluorophenethyl)piperidin-4-yl]-6-(1-hydroxyproyl)indole Oxalate] was tested, and the Ki (α1 adrenalin receptor) was 42.5 nM, the Ki (serotonin 1A receptor) was 0.56 nM and the Ki (serotonin 2 receptor; [1]) was 24.5 nM.

With `O=C(Cc1ccc2ccn(C3CCN(CCc4ccc(F)cc4)CC3)c2c1)N(CCO)CCO` [Example 303, 1-[1-(4-fluorophenethyl)piperidin-4-yl]-6-[bis(2-hydroxyethyl)]carbamoylmethylindole Oxalate] the Ki (α1 adrenalin receptor) was 307 nM, the Ki (serotonin 1A receptor) was 3.6 nM and the Ki (serotonin 2 receptor; [1]) was 35.8 nM.

With `O=C(CF)NCc1ccc2ccn(C3CCN(CCc4ccccc4F)CC3)c2c1` [Example 381, 1-[1-(2-fluorophenethyl)piperidin-4-yl]-6-fluoroacetamidomethylindole] the Ki (α1 adrenalin receptor) was 101 nM, the Ki (serotonin 1A receptor) was 1.37 nM and the Ki (serotonin 2 receptor; [1]) was 2.02 nM.
